{"source": "patent US10780061B2", "about": "“Composition comprising farnesol and use thereof” (Daegu Gyongbuk Institute of Science and Technology, priority 2014, dated 2020)", "key": {"[1]": {"test_system": "lower limb muscles (GAS, SOL, EDL, TA)", "assay": "Observation of lower limb muscles of mice administered with farnesol", "assay_type": "in vivo, mouse", "settings": "mice fed with farnesol for 5 weeks", "method": "5 month-old C57BL/6 male mice (weighing 22 g) are maintained at a temperature of 22±2° C., humidity of 55±5%, and a light-dark cycle of 12:12 hours. An animal feed containing 0.5% w/w farnesol was supplied by Jung-Ang Lab Animal Inc. A control group is fed with a feed equivalent to a general feed for experimental animals, excluding that no 0.5% w/w farnesol is contained. They are allowed free access to drinking water. Skeletal muscles were separated from the mice and control mouse fed with farnesol for 5 weeks, and subjected to immunoblot analysis. In all the following Examples, administration or feeding of mouse is performed as above, unless otherwise mentioned. […] In this specification, assuming that human life expectancy of 100 years corresponds to mouse life expectancy of 3 years, human life expectancy is estimated from the relationship. […] Herein, GAS indicates gastrocnemius muscle, SOL indicates soleus muscle, EDL indicates extensor digitorum longus muscle, and TA indicates tibialis anterior muscle. Gastrocnemius muscle exists as a white muscle because glycolytic muscle fibers are mainly distributed therein."}, "[2]": {"assay": "LC-MS/MS of farnesol and metabolite FPP in extensor digitorum longus muscle", "assay_type": "in vivo", "settings": "mouse orally administered with farnesol 5 weeks", "method": "The amount of intracellular farnesol or metabolite thereof is measured in the extensor digitorum longus muscle of a mouse administered with farnesol for 5 weeks.\nSample pretreatment for quantitative analysis of farnesol in the mouse extensor digitorum longus muscle is performed by extraction using saturated KOH/ethanol and fractionation using Tris-HCl buffer and n-hexane: ethanol (Journal of Pharmaceutical and Biomedical Analysis 47(2008) 560-566) and an n-hexane layer is obtained and dried, followed by LC-MS/MS (ACQUITY UPLC System and ACQUITY TQD mass spectrometry, Waters). […] The concentration of farnesol is determined by a ratio of a peak area of farnesol to a peak area of 1-tetradecanol used as an internal standard, they are added to the sample in an equal amount.\nSample pretreatment for quantitative analysis of a farnesol metabolite, farnesylpyrophosphate (FPP) in the mouse extensor digitorum longus muscle is performed by extraction using 2-propanol: 100 mM NH4HCO3, pH 7.8 (1:1 v/v) and protein precipitation using acetonitrile (Anal. Biochem. 383 (2008) 18-24), and a supernatant is obtained and dried, followed by LC-MS/MS (ACQUITY UPLC System and ACQUITY TQD mass spectrometry, Waters). […] The concentration of FPP is determined by a peak area."}, "[3]": {"assay": "Grip strength of old mice", "assay_type": "in vivo", "settings": "old mouse, farnesol diet 4 months, vs negative control old mouse", "method": "22-month-old female mice (weighing 30 g) are fed with a control diet and a farnesol diet for 4 months. That is, 22-month-old mice are fed for 4 months, and then 26-month-old mice are analyzed. […] The same mouse is used as a control group, except that it is fed with a diet containing no farnesol. Muscle strength, energy expenditure, glucose tolerance, and fat accumulation of each mouse are evaluated. […] To measure grip strength as an index of mouse muscle strength, a grip strength meter (Bioseb) is used. For measurement of grip strength of mouse, its front paws are allowed to grip the grid, and its tail is then pulled back steadily and horizontally. When the animal releases the grid, the value is used as grip strength. The maximal grip strength values of individual mice are measured 5 times, and mean values are obtained. Grip strength is expressed as a force (g, gram) per weight."}, "PARIS": {"test_system": "PARIS", "assay": "Immunoprecipitation analysis for PARIS in tibialis anterior muscles", "assay_type": "in vivo, mouse", "settings": "4-month-old mice fed with farnesol 0, 1, 2, 3 days", "method": "To examine whether farnesol increases PARIS farnesylation in muscles, immunoprecipitation of PARIS is performed in tibialis anterior muscles of 4-month-old mice (female, 22 g) fed with farnesol for a predetermined period, that is, 0, 1, 2, and 3 days. The tibialis anterior muscles which are removed from the mice fed with farnesol are mixed with a lysis buffer (10 mM Tris-HCl, pH 7.4, 150 mM NaCl, 5 mM EDTA, 1% triton X-100, 10 mM Na-β-glycerophosphate, and Complete Protease Inhibitor Mixture (Roche)), and homogenized using a Diax 900 tissue homogenizer. The tissues are left under refrigeration for 30 minutes, and centrifuged at 52,000 rpm for 20 minutes. A supernatant is used for immunoprecipitation."}}, "data": [{"smiles": "CC(C)=CCC/C(C)=C/CC/C(C)=C/CO", "note": "[farnesol, (2E,6E)-3,7,11-trimethyldodeca-2,6,10-trien-1-ol]", "values": [{"measurement": "muscle fibers of gastrocnemius, soleus, extensor digitorum longus and tibialis anterior muscle (appearance)", "setting": "[1]", "value": "converted to red muscles having a high percentage of oxidative muscle fibers"}, {"measurement": "amount of farnesol in EDL muscle relative to control", "setting": "[2]", "value": "≥ 1.3", "unit": "times"}, {"measurement": "grip strength", "setting": "[3]", "value": "significantly increased"}, {"measurement": "farnesylated PARIS level in tibialis anterior muscle", "setting": "PARIS", "value": "further increases"}]}]}
